The source of these data is US9833454B2, “Difluoromethoxy compound with low bioactivation potential for the reduction of beta-amyloid production” (BRISTOL-MYERS SQUIBB COMPANY, priority 2014, dated 2017).

One data set concerns the target CYP2C19 (Homo sapiens, UniProt P33261). Briefly: Inhibition of recombinant CYP enzymes (rCYP), CYP2C19. The following applies: average of two experiments, read-out: rCYP IC50 2C19. The data set is classed as in vitro ADME.
Another data set addresses dopamine transporter (Homo sapiens, UniProt Q01959). Description: In vitro safety: off-target receptor binding and enzyme assays, DAT. Conditions: in vitro safety panel. How it is done: (§1) A range of off-target receptor binding assays and enzyme assays were carried out using conventional methods available in the art.
In another data set the target is T1, monoamine oxidase A (Homo sapiens, UniProt P21397).
T1 sequence (P21397 1-527): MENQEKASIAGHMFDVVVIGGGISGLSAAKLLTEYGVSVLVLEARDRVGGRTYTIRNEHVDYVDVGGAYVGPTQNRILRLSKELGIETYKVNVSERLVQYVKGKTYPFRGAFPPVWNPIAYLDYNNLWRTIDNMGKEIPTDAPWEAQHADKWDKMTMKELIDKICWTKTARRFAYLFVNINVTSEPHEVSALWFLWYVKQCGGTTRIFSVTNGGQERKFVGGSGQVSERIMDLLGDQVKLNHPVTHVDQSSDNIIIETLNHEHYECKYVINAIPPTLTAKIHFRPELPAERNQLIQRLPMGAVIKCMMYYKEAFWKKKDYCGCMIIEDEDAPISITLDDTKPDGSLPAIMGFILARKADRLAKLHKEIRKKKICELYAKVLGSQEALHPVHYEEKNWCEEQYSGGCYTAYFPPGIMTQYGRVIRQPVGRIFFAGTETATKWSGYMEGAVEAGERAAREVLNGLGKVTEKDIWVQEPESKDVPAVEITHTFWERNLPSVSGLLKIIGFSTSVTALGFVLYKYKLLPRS
Description: In vitro safety: off-target receptor binding and enzyme assays, MAO A. The following applies: in vitro safety panel. The class given is biochemical. How it is done:
as §1

In the next data set the target is T2, CYP2B6 (Homo sapiens, UniProt P20813).
T2 sequence (P20813 1-491): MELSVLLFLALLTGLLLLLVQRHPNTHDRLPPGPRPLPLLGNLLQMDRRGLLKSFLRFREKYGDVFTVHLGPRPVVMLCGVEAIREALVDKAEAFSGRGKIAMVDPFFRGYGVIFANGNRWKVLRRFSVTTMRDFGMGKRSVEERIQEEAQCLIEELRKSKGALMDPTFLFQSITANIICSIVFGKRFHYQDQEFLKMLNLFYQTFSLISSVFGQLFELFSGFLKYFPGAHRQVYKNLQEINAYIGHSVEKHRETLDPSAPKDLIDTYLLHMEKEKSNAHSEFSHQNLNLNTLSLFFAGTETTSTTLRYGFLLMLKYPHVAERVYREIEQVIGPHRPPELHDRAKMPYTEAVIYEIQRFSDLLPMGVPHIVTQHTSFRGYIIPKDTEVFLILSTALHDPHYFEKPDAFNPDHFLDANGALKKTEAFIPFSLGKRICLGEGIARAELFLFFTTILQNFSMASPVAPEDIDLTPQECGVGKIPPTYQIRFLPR
Description: Inhibition of CYP enzymes in human liver microsomes (HLM), CYP2B6. The data set is classed as in vitro ADME.

Like-named read-outs stand apart in the source and are kept apart here. Some results are limits rather than exact numbers.

Sequence of dopamine transporter (Q01959 whole entry): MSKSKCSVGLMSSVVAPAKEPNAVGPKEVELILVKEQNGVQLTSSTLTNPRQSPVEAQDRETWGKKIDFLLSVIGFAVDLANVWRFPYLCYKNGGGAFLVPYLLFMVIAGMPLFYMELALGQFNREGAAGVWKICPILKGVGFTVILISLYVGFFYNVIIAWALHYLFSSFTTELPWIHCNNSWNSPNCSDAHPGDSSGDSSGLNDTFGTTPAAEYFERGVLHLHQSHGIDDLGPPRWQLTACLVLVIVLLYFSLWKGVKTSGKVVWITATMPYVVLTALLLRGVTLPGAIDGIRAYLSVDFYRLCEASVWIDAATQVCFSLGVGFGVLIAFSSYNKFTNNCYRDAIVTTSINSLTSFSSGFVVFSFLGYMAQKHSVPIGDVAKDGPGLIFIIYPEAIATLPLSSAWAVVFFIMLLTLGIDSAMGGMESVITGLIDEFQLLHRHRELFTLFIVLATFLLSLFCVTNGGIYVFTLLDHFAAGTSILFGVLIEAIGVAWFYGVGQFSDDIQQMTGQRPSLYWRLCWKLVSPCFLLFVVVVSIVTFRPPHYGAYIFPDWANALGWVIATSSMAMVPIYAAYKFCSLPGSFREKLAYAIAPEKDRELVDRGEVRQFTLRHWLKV
Sequence of CYP2C19 (P33261 whole entry): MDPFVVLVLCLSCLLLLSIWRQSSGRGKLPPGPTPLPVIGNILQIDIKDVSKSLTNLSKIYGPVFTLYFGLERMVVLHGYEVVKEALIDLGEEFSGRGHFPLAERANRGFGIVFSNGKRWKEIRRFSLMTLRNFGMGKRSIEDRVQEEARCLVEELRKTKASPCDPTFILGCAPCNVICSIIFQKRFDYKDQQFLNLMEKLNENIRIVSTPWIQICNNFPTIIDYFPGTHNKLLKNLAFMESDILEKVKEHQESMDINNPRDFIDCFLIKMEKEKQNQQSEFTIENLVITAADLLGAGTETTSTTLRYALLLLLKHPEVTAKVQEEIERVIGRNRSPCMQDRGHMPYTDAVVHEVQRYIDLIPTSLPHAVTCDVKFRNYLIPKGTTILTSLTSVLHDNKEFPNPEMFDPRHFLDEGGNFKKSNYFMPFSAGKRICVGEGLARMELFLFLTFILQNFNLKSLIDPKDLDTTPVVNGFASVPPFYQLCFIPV

Turning to `CNc1nc(Nc2ccc(-n3cnc(C)n3)c(OC(F)F)c2)nc2c1C(C)(C)CC2c1ccc(F)cc1` (single isomer, unassigned) [Enantiomer 1, N2-(3-(difluoromethoxy)-4-(3-methyl-1H-1,2,4-triazol-1-yl)phenyl)-7-(4-fluorophenyl)-N4,5,5-trimethyl-6,7-dihydro-5H-cyclopenta[d]pyrimidine-2,4-diamine], the IC50 (as a rule, the point on the concentration scale where inhibition reaches its midpoint) on CYP2C19 was 0.96 µM; on dopamine transporter, 8 to 10 µM; at monoamine oxidase A it was 8 to 10 µM; on CYP2B6 (0 min preincubation, read-out: IC50-0 min 2B6), above 40 µM; at CYP2B6 (read-out: IC50-30 min 2B6, 30 min preincubation with NADPH), above 40 µM. For the same compound, the “IC50 Ratio 2B6” value on CYP2B6 (IC50 shift 0 vs 30 min preincubation (TDI ratio)) was 1.0.
